According to patent US20250282810A1, “Chemical Synthesis Method and Application of V. Cholerae Serotype O100 O-Antigen Oligosaccharides” (priority 2024, published 2025):

Tested on: rabbit serum IgG antibodies
Experiment: Glycan microarray screening of synthetic oligosaccharides with rabbit serum
Type: binding
Details: oligosaccharides printed at 0.1 mM and 0.5 mM, LPS at 1 mg/mL and 5 mg/mL, rabbit serum 1:200, cy3 goat anti-rabbit IgG 1:400
Method: . Then, a microarray spotter was used for printing distribution grids shown in FIG. 9B onto the area of a microarray (9 mm long*9 mm wide), and incubation was performed overnight at room temperature and 65% humidity to covalently bind oligosaccharide fragments to the microarray. After incubation, a mixed solution (pH=9) of […] ethanolamine and […] sodium phosphate was used for processing at 50° C. for 1 h, and then, ultrapure water was used for washing.
The glycan microarray was blocked with a PBS solution containing 3% BSA at room temperature for 1 h. The glycan microarray was washed once with a PBS solution containing 0.1% Tween 20 (PBST solution), washed twice with a PBS solution, and spin-dried, and the glycan microarray was loaded into a 16-well incubator (ProPlate). 120 microliters of rabbit serum sample diluted in a ratio of 1:200 in a PBS solution containing 1% BSA was added to each well, and incubated overnight in a moist chamber at 4° C. in the dark to allow rabbit serum IgG antibodies identifying the synthetic oligosaccharide fragments to bind to the synthetic oligosaccharides on the glycan microarray, and the sample was removed and washed three times with 200 microliters of PBST solution to remove unbound serum IgG antibodies. […]

Substance: D-FucNAc [synthetic sugar 6*]
- binding ability to IgG antibodies (fluorescence signals): did not bind to antibodies
